Experimental data reported in patent publication US9643960B2, “Procaspase activating compounds” (The Board of Trustees of the University of Illinois, priority 2009, dated 2017).
≈ marks a conversion by molar mass, not a printed value. Where two headings read alike, the source gives them in different places.

Tests used:
GL-1 = experiment: Cytotoxicity in GL-1 cells (sulforhodamine B, 72 h); format: cell-based; conditions: Canis lupus familiaris, GL-1, Dog Lymphoma
EL-4 = experiment: Cytotoxicity in EL-4 cells (sulforhodamine B, 72 h); format: cell-based; conditions: EL4, EL-4, Mouse Lymphoma
[1] = Formulation of PAC-1 in aqueous 2-hydroxypropyl-β-cyclodextrin; format: physicochemical
Text: Formulation of PAC-1. […] Complete dissolution requires acidification of the aqueous solution to pH 1.5-2, and then the solution is restored to pH 5-6.

HeLa = experiment: Cytotoxicity in HeLa cells (sulforhodamine B, 72 h); format: cell-based; conditions: Human Cervical
17-71 = experiment: Cytotoxicity in 17-71 cells (MTS cell viability assay); format: cell-based; conditions: Canis lupus familiaris, 17-71, Dog Lymphoma
MDA-MB-231 = experiment: Cytotoxicity in MDA-MB-231 cells (sulforhodamine B, 72 h); format: cell-based; conditions: MDA-MB-231, Human Breast
C57/BL6 mice = experiment: Neurotoxicity in mice after intravenous administration; format: in vivo, mouse; conditions: for Neurotoxicity: Mice, preliminary results
[2] = Solubility in β-cyclodextran; format: physicochemical
U-937 cells = experiment: Induction of apoptosis, annexin V/PI staining; format: cell-based, human; conditions: 50 μM, 12 hours
Procedure: The cells were centrifuged (200 g for 5 min), washed with PBS (2 mL), resuspended in 500 μL Annexin V Binding Buffer. To each sample was added 10 μL of FITC conjugated Annexin V stain (Southern Biotech) and 10 μL of propidium iodide (Sigma) to a final concentration of 50 μg/mL. Cell populations were analyzed on a Benton Dickinson LSR II cell flow cytometer.

Jurkat = experiment: Cytotoxicity in Jurkat cells (sulforhodamine B, 72 h); format: cell-based; conditions: Human Leukemia
SK-Mel-5 = experiment: Cytotoxicity in SK-Mel-5 cells (sulforhodamine B, 72 h); format: cell-based; conditions: SK-Mel-5, Human Melanoma
[3] = tested on: U937 human lymphoma cells; experiment: Cell death assay in U937 cells (sulforhodamine B, 72 h); format: cell-based; conditions: Homo sapiens, U-937, 72 h
Procedure: To each well was added 2 μL of 100× compound stock solutions in DMSO at varying concentrations so that the cells were treated with concentrations between 0 μM and 100 μM compound. Each concentration was tested in quintuplicate. In each plate 5 wells received 10 μM etoposide as a positive control and 5 wells received 2 μL of DMSO as a negative control. […] 1 Specifically, to each well of the plate was added 50 μL of an 80% (w/v) solution of TCA in H2O and the plates were allowed to rest at 4° C. overnight. The plates were then washed gently with a steam of H2O five times to remove the excess TCA and precipitated serum proteins. […] After staining, the wells were gently washed 5 times with 100 μL of 1% (v/v) acetic acid to remove the unbound dye. The plates were then allowed to air dry. […] The OD was then read at 510 nm in a Molecular Dynamics plate reader and the percent cell death calculated and normalized to the positive control (100% cell death) and the negative control (0% cell death). The percent cell death was averaged for each compound concentration and plotted as a function of compound concentration. The data were fit to a logistical dose response curve using Table curve 2D and the IC50 value was calculated. The experiment was repeated three times and the average of the calculated IC50 values was reported. The standard error of the mean (SEM) was determined and reported for the triplicate experiments.
U-937 cells grow in culture as a suspension.

OSW = experiment: Cytotoxicity in OSW cells (sulforhodamine B, 72 h); format: cell-based; conditions: Canis lupus familiaris, Dog Lymphoma
[4] = tested on: healthy research hound dog; experiment: Neurotoxicity in dogs; format: in vivo
Text: Further information about this compound is described elsewhere herein.

C=CCc1cccc(/C=N/NC(=O)CN2CCN(Cc3ccccc3)CC2)c1O [PAC-1]
IC50 (GL-1): 4.9 ± 0.3 µM
IC50 (EL-4): 3.8 ± 0.9 µM
solubility ([1]; aqueous 200 mg/mL 2-hydroxypropyl-β-cyclodextrin solution, aqueous with cosolvent or surfactant or cyclodextrin, aqueous 200 mg/mL solution of 2-hydroxypropyl-β-cyclodextrin): 20 mg/mL (≈ 51 mM)
stability in solution ([1]; stored at 4° C., pH 5-6): at least 5 days
IC50 (HeLa): 15.5 ± 3.8 µM
IC50 (17-71): 2.5 ± 0.9 µM
IC50 (MDA-MB-231): 9.9 ± 1 µM
Neurotoxicity (C57/BL6 mice; 12.5 mg/kg): No
Neurotoxicity (C57/BL6 mice; 37.5 mg/kg): Yes
clinical signs of toxicity (C57/BL6 mice; mice, 10 mg/kg i.v., observed 24 hours): no clinical signs of toxicity were observed
clinical signs of toxicity (C57/BL6 mice; mice, 20 mg/kg i.v.): mild neurological symptoms including lethargy, and mild ataxia
persistence of symptoms after injection (C57/BL6 mice; mice, 20 mg/kg i.v.): 20 min
ataxia (incidence) (C57/BL6 mice; mice, 30 mg/kg i.v.): 3/3
clinical signs of toxicity (C57/BL6 mice; mice, 30 mg/kg i.v.): overt signs of neurotoxicity
duration of neurotoxicity (C57/BL6 mice; mice, 30 mg/kg i.v.): approximately 15 minutes
loss of balance (incidence) (C57/BL6 mice; mice, 30 mg/kg i.v.): 3/3
onset of neurotoxicity after injection (C57/BL6 mice; mice, 30 mg/kg i.v.): ≤ 5 min
spasms (incidence) (C57/BL6 mice; mice, 30 mg/kg i.v.): 1/3
clinical signs of toxicity (C57/BL6 mice; mice, 50 mg/kg i.v.): acute neurotoxic symptoms with more pronounced ataxia and loss of balance
Solubility in β-Cyclodextran (mg β-CD/μmol Compound) [2]: 5.3 mg β-CD/μmol Compound
apoptosis (annexin V staining) (U-937 cells): ~40%
IC50 (Jurkat): 5.7 ± 2.8 µM
IC50 (SK-Mel-5): 11.5 ± 3.6 µM
IC50 ([3]; read-out: IC50 Value (μM), U-937, Human Lymphoma, 72 hours): 9.3 ± 0.5 µM
IC50 ([3]; read-out: U937 (IC50 μM), 72 h exposure, sulforhodamine B assay): 4.8 ± 1 µM
IC50 (OSW): 8.6 ± 1.3 µM
toxicity at higher doses ([4]; dog, formulation with 2-hydroxypropyl-β-cyclodextrin): acute neurological toxicity (ataxia and seizure)
duration of neurotoxicity ([4]; one hound dog, 60 mg/kg i.v.): 20 min
